According to US20170056351A1, “COMPOSITION FOR INDUCING TUMOR IMMUNITY” (UNIVERSITY OF OCCUPATIONAL AND ENVIRONMENTAL HEALTH, JAPAN, priority 2014, published 2017):

Experiments:
[1] = tested on: 9L cells; experiment: Cellular ROS levels after ionizing irradiation (DCFD, flow cytometry), 9L; format: cell-based, rat; conditions: for relative MFI of DCF fluorescence 12 hours after ionizing irradiation, timing study: 10 Gy
Procedure: Intracellular ROS production was evaluated using the oxidant-sensitive fluorescence probe DCFD and flow cytometry (Yamamori T, Yasui H, Yamazumi M, et al: Ionizing radiation induces mitochondrial reactive oxygen species production accompanied by upregulation of mitochondrial electron transport chain function and mitochondrial content under control of the cell cycle checkpoint. Free Radic Biol Med 53: 260-270, 2012.). The cells were seeded on a 100-mm culture dish, and using an X-ray irradiation apparatus (MBR-1520R; Hitachi, Tokyo, Japan) (0.67 Gy/min), the cells were then irradiated with a radiation of 10 Gy in a dark room. During the ionizing irradiation, the culture dish was maintained at a room temperature in a dark container. In the case of a 5-ALA and ionizing irradiation group (RT,12 h+ALA), the cells were treated with 1 mM 5-ALA for 4 hours, then, immediately after the treatment, the cells were irradiated with ionizing radiation, and were then incubated together with 10 μM DCFD at 37° C. for 15 minutes, followed by washing with PBS twice. Thereafter, as described above, the cells were analyzed using a flow cytometer (excitation: 488 nm; radiation: 525/50 nm band-pass filter). Control cells were not exposed to ionizing radiation or 5-ALA. In a 5-ALA group, the cells were treated with 1 mM 5-ALA for 4 hours, but were not exposed to ionizing radiation. The control cells and the cells of the 5-ALA group were treated with DCFD in the same manner as described above. In order to prevent the photoactivation of 5-ALA-induced PpIX and DCFD, all procedures were carried out in a dark room. The flow cytometric data were analyzed using FlowJo (Tree Star Inc., Ashland, Oreg., USA). The MFI of the DCF fluorescence in the cells, with respect to that in control cells, was calculated for each cell line.
The cells were seeded on a 100-mm culture dish, and were then exposed to an ionizing radiation of 10 Gy. The incubation time (4 h) of 1 mM 5-ALA was the same among individual groups, and three types of 5-ALA treatment times were initiated: i) 5-ALA treatment immediately before ionizing irradiation [RT+ALA (pre) group]; ii) 5-ALA treatment immediately after ionizing irradiation [RT+ALA (4 h) group]; and iii) 5-ALA treatment 8 hours after ionizing irradiation [RT+ALA (12 h) group]. In each group, twelve hours after the ionizing irradiation, the cells were incubated together with 10 μM DCFD at 37° C. for 15 minutes, and were then washed with PBS twice. Immediately after the washing, as described above, DCF fluorescence was analyzed using a flow cytometer. Control cells were not treated with ionizing radiation or 5-ALA. In a group involving only ionizing irradiation (RT), the cells were exposed to ionizing radiation, without performing 5-ALA treatments, and were then treated with DCFD twelve hours after the exposure to the ionizing radiation in the same manner as described above. All procedures were carried out in a dark room. The flow cytometric data were analyzed using FlowJo software. The MFI of the DCF fluorescence in the cells, with respect to that in control cells, was calculated for each cell line.

[2] = tested on: 9L cells; experiment: Intracellular level of 5-ALA-induced PpIX by flow cytometric analysis, 9L; format: cell-based, rat; conditions: average±SE
Procedure: Two types of rat glioma cell lines (9L and C6) and human glioma cell lines (U251 and T98G) were used. Before use, 9L and T98G were cultured in RPMI-1640 at 37° C. for several days, whereas C6 and U251 were cultured in 10% FBS-added Dulbecco's modified Eagle's medium (DMEM) at 37° C. for several days. These cell lines were maintained at 37° C. in 5% CO2 in a humidified incubator. The cells were subcultured at an exponential growth phase thereof, using 0.05% trypsin solution containing 0.5 mM ethylenediamine tetraacetate. 70% confluent cells were used in the subsequent experiments. 5-ALA was dissolved in RPMI-1640 (9L and T98G), or in 10% FBS-added DMEM (C6 and U251), to a final concentration of 1 mM.
The cells were seeded on a 100-mm culture dish, and were then cultured. The cells were incubated in a complete medium containing 1 mM 5-ALA for 4 hours, and were then washed with PBS. The resulting cells were peeled from the bottom layer by a trypsin treatment, and were then recovered by centrifugation (400×g, 3 min, and 4° C.). Immediately after the recovery, the cells were re-suspended in cold PBS/FBS, and were then analyzed using a flow cytometer (EC800; Sony Biotechnology, Tokyo, Japan). Generally, 30,000 cells contained in each sample were evaluated. Using 488-nm argon ion laser, fluorescence was excited from intracellular PpIX, and the fluorescence was then detected using a 640/30 nm band-pass filter. In order to prevent photoactivation of 5-ALA-induced PpIX, all procedures were carried out in a dark room. The flow cytometric data were analyzed using FlowJo (Tree Star Inc., Ashland, Oreg., USA). The mean fluorescence intensity (MFI) of PpIX fluorescence in the 5-ALA-treated cells, with respect to that of 5-ALA-not-treated cells, was calculated for each cell line.

NCC(=O)CCC(=O)O [ALA, 5-aminolevulinic acid]
relative MFI of DCF fluorescence (cellular ROS) ([1]; 1 mM 5-ALA 4 hours, without ionizing irradiation, relative to control cells, average±SE): 1.19±0.07 | relative MFI of DCF fluorescence 12 hours after ionizing irradiation, timing study ([1]; 5-ALA treatment 8 hours after ionizing irradiation, RT+ALA (12 h) group): 1.58±0.11 | relative MFI of DCF fluorescence 12 hours after ionizing irradiation, timing study ([1]; 5-ALA treatment immediately after ionizing irradiation, RT+ALA (4 h) group): 1.57±0.05 | relative MFI of DCF fluorescence 12 hours after ionizing irradiation, timing study ([1]; 5-ALA treatment immediately before ionizing irradiation, RT+ALA (pre) group): 1.93±0.10 | relative MFI of DCF fluorescence (cellular ROS) ([1]; 12 hours after 10 Gy ionizing irradiation with 5-ALA pre-treatment (1 mM, 4 hours), p=0.009 vs RT 12 h): 1.91±0.19 | relative MFI of PpIX fluorescence ([2]; 1 mM 5-ALA for 4 hours, relative to 5-ALA-not-treated cells): 21.5±0.12 | relative MFI of PpIX fluorescence after ionizing irradiation ([2]; 4 hours after ionizing irradiation): 15.2±0.15 | relative MFI of PpIX fluorescence after ionizing irradiation ([2]; 12 hours after ionizing irradiation): 15.9±0.73 | relative MFI of PpIX fluorescence after ionizing irradiation ([2]; 24 hours after ionizing irradiation): 13.4±2.43
